Measured values as given in patent US20190345443A1, “METHOD FOR THE CULTURING AND DIFFERENTIATION OF CELLS” (FRAUNHOFER-GESELLSCHAFT ZUR FORDERUNG DER ANGEWANDTEN …, priority 2018, published 2019).

Test system: MDA-MB-231 breast cancer cells
Experiment: Overhead culture of MDA-MB-231 breast cancer cells with paclitaxel, relative cell count
Type: cell-based
Conditions: 500 nM paclitaxel, 48 h overhead culture
Protocol: In the present experiment, MDA-MB-231 breast cancer cells were initially seeded on cell culture substrates according to the present invention, in particular nanoporous glass membranes with average pore diameters of 17 nm, 26 nm, 46 nm, 81 nm, and 124 nm, and on a smooth non-porous glass surface and cultured for 24 h in order to obtain homogeneous cell colonization on all substrates. Subsequently, the samples were inverted and divided into two groups: one control group and one test group, wherein the culturing took place in overhead culture for 48 h. In this context, the control group was cultured in normal culture medium and 500 nM paclitaxel was added to the culture medium of the test group. During culturing for 48 h in overhead culture, a reduction of the relative cell count on the substrates according to the invention by approximately 35-55% in the test group as compared to the control group was observed (FIG. 7).

CC(=O)O[C@H]1C(=O)[C@@]2(C)[C@H]([C@H](OC(=O)c3ccccc3)[C@]3(O)C[C@H](OC(=O)[C@H](O)[C@@H](NC(=O)c4ccccc4)c4ccccc4)C(C)=C1C3(C)C)[C@]1(OC(C)=O)CO[C@@H]1C[C@@H]2O [paclitaxel]
reduction of the relative cell count in the test group as compared to the control group (on nanoporous glass membranes (17, 26, 46, 81, 124 nm)): 35-55% | reduction of the relative cell count in the test group as compared to the control group (on smooth non-porous glass surface): approximately 5%
